Results: PMC7179259, “Safety, Tolerability, Pharmacokinetics, and Antimalarial Activity of the Novel Plasmodium Phosphatidylinositol 4-Kinase Inhibitor MMV390048 in Healthy Volunteers” (Antimicrobial Agents and Chemotherapy, 2020)

What was measured:
[1] = test system: healthy subjects inoculated with blood-stage P. falciparum; experiment: Induced blood-stage malaria (IBSM) study: safety; format: in vivo, human
Protocol: The second study was conducted at Q-Pharm (Brisbane, Australia) from 27 October 2014 to 19 December 2014. This was an IBSM, phase 1b, single-center, open-label study, in which a single dose of MMV390048 was administered to subjects previously inoculated with blood-stage P. falciparum. This study was planned to consist of two dose cohorts; however, a second cohort was not enrolled due to the high variability in pharmacokinetic profiles observed in the first cohort and in the first-in-human study (see Results). The IBSM study commenced when the first two dose cohorts of the first-in-human study had been completed. MMV390048 was administered in the first-in-human and IBSM studies in a powder-in-bottle formulation.
(§1) (ii) IBSM study. The dose of MMV390048 chosen (20 mg) was based on the pharmacokinetic, safety, and tolerability data available from the first-in-human study at the time the IBSM study commenced (when 5- and 20-mg-dose cohorts of the first-in-human study had been completed). This dose was below the estimated single dose required to achieve complete cure calculated from preclinical studies (80 to 100 mg) since recrudescence allows for characterization of the pharmacokinetic/pharmacodynamic relationship between MMV390048 and P. falciparum parasitemia. Subjects were inoculated intravenously on day 0 with erythrocytes infected with ∼1,800 viable chloroquine-sensitive P. falciparum 3D7 parasites ([17]). Fasted (≥8 h) subjects were dosed with MMV390048 when they reached the parasitemia threshold for treatment (∼1,000 parasites ml^−1) and were followed up until the end-of-study visit on day 28.
Safety endpoints were the incidence, severity, and relationship to the investigational product (and inoculum for the IBSM study) of observed and self-reported adverse events (AEs), and changes from baseline in physical examination, vital signs, standard electrocardiograms (ECGs), continuous ECGs (first-in-human study only), and laboratory evaluation (hematology, coagulation parameters, hemolysis panel, clinical chemistry, and urinalysis) findings. […] AE severity was evaluated according to the Common Terminology Criteria for Adverse Events version 4.03 ([18]) and the World Health Organization recommendations for grading acute and subacute toxic effects ([19]).

[2] = Induced blood-stage malaria (IBSM) study: plasma pharmacokinetics; format: in vivo; conditions: human; for AUC(0-t): oral, 20 mg
Protocol: as §1
Blood samples from the three studies were analyzed at the University of Cape Town Division of Clinical Pharmacology Laboratory. MMV390048 was extracted from plasma using a protein precipitation procedure and analyzed using a liquid chromatography-tandem mass spectrometry assay. The precision (total assay coefficients of variation) for MMV390048 during sample analysis was less than 8% at all quality control levels, including the limit of quantification, which was 0.5 ng ml^−1. The full details of the assay are included in the supplemental material.
Noncompartmental pharmacokinetic analysis was performed using Phoenix WinNonlin Pro version 6.3 (Certara L.P., St. Louis, MO, USA) for the first-in-human and the formulation optimization studies, and using R version 3.2.0 for the IBSM study. Pharmacokinetic endpoints were the peak plasma concentration (Cmax), time at which Cmax is reached (Tmax), area under the concentration-time curve from 0 h to infinity (AUC0–inf), elimination half-life (t½), apparent clearance (CL/F), and apparent volume of distribution (Vz/F).

[3] = single oral 20 mg fasted, powder-in-bottle, n = 6, geometric mean (CV %)

CS(=O)(=O)c1ccc(-c2cnc(N)c(-c3ccc(C(F)(F)F)nc3)c2)cc1 [MMV390048]
AEs deemed related to malaria ([1]; 20 mg): 81.3% | No. (%) of subjects with adverse events: All AEs, Treatment related ([1]; 20 mg (n = 6)): 0 | No. (%) of subjects with adverse events: Grade 2 AEs ([1]; 20 mg (n = 6)): 3 (50) | No. (%) of subjects with adverse events: Grade 2 AEs, Treatment related ([1]; 20 mg (n = 6)): 0 | No. (%) of subjects with adverse events: Grade 3 AEs ([1]; 20 mg (n = 6)): 0 | No. (%) of subjects with adverse events: SAEs ([1]; 20 mg (n = 6)): 0 | No. of adverse events: All AEs ([1]; 20 mg (n = 6)): 32 | No. of adverse events: Grade 2 AEs ([1]; 20 mg (n = 6)): 9 | No. of adverse events: Grade 2 AEs, Treatment related ([1]; 20 mg (n = 6)): 0 | No. of adverse events: Grade 3 AEs ([1]; 20 mg (n = 6)): 0 | No. of adverse events: SAEs ([1]; 20 mg (n = 6)): 0 | AEs mild in severity ([1]; 20 mg, 23/32 AEs): 71.9% | headache (most common AE), cases ([1]; 20 mg, in 4 subjects): 7 | AUC(0-t) ([2]; the 4 subjects who recrudesced 2 days after treatment): 6000 to 9000 ng·h/mL | AUC(0-t) ([2]; the two subjects who recrudesced 7 days after treatment): ~12000 ng·h/mL | AUC(0-inf) [2, 3]: 15900 ng·h/mL | Cmax [2, 3]: 106 ng/mL | Tmax ([2]; single oral 20 mg fasted, powder-in-bottle, n = 6, median (range)): 2 h
